Data from US10131652B2, “Pyrimidinyloxy benzene derivatives as herbicides” (E. I. DU PONT DE NEMOURS AND COMPANY, priority 2014, dated 2018).

Assays:
Test in all cases: Test D pre-/postemergence plant response
Format in all cases: in vivo
[1] = tested on: Italian ryegrass (Lolium multiflorum)
Summary of the method: (§1)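 Plants are held in a greenhouse 13 to 15 days after spraying, then injury is rated by eye relative to controls on a 0 to 100 scale. Treatments are preemergence on freshly sown loam/sand pots or postemergence at 1- to 4-leaf stage in peat-based medium; surfactant-containing solvent formulation.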

[2] = tested on: johnsongrass (Sorghum halepense)
Summary of the method: as §1

[3] = tested on: waterhemp (common waterhemp, Amaranthus rudis)
Summary of the method: as §1

corn (Zea mays) = tested on: corn (Zea mays)
Summary of the method: as §1

[4] = tested on: winter wheat (Triticum aestivum)
Summary of the method: as §1

soybean (Glycine max) = tested on: soybean (Glycine max)
Summary of the method: as §1

[5] = tested on: large (Lg) crabgrass (Digitaria sanguinalis)
Summary of the method: as §1

[6] = tested on: lambsquarters (Chenopodium album)
Summary of the method: as §1

[7] = tested on: velvetleaf (Abutilon theophrasti)
Summary of the method: as §1

[8] = tested on: blackgrass (Alopecurus myosuroides)
Summary of the method: as §1

[9] = tested on: barnyardgrass (Echinochloa crus-galli)
Summary of the method: as §1

[10] = tested on: oilseed rape (Brassica napus)
Summary of the method: as §1

[11] = tested on: yellow nutsedge (Cyperus esculentus)
Summary of the method: as §1

[12] = tested on: morningglory (Ipomoea coccinea)
Summary of the method: as §1

[13] = tested on: pigweed (Amaranthus retroflexus)
Summary of the method: as §1

[14] = tested on: giant foxtail (Setaria faberii)
Summary of the method: as §1

[15] = tested on: galium (catchweed bedstraw, Galium aparine)
Summary of the method: as §1

[16] = tested on: ragweed (common ragweed, Ambrosia elatior)
Summary of the method: as §1

[17] = Postemergence, 16 g ai/ha, scale 0 to 100 (0 no effect, 100 complete control)
[18] = Postemergence, 31 g ai/ha, scale 0 to 100 (0 no effect, 100 complete control)
[19] = Postemergence, 62 g ai/ha, scale 0 to 100, 0 no effect, 100 complete control
[20] = Postemergence, 125 g ai/ha, scale 0 to 100, 0 no effect, 100 complete control
[21] = Preemergence, 16 g ai/ha, scale 0 to 100 (0 no effect, 100 complete control)
[22] = Preemergence, 31 g ai/ha, scale 0 to 100 (0 no effect, 100 complete control)
[23] = Preemergence, 62 g ai/ha, scale 0 to 100 (0 no effect, 100 complete control)

FCc1cc(-c2c(F)cccc2Oc2ncc(Cl)cn2)no1 [Compound 57]
90: Plant response rating, Waterhemp [3, 22] | Plant response rating, Soybean (soybean (Glycine max); [20]) | Plant response rating, Oilseed Rape [10, 20] | Plant response rating, Foxtail, Giant [14, 22] | Plant response rating (scale 0 to 100), Galium ([15]; Preemergence, 125 g ai/ha) | Plant response rating, Galium [15, 23]
15: Plant response rating, Wheat [4, 19] | Plant response rating, Blackgrass [8, 20]
50: Plant response rating (scale 0 to 100), Ryegrass, Italian ([1]; Preemergence, 125 g ai/ha) | Velvetleaf plant response rating [7, 18] | Plant response rating, Blackgrass [8, 23] | Plant response rating, Foxtail, Giant [14, 21] | Galium plant response rating [15, 18] | Ragweed plant response rating [16, 18]
85: Plant response rating, Soybean (soybean (Glycine max); [19]) | Plant response rating, Crabgrass, Large [5, 22] | Plant response rating (scale 0 to 100), Barnyardgrass ([9]; Preemergence, 125 g ai/ha) | Plant response rating, Pigweed [13, 22]
5: Plant response rating, Ryegrass, Italian [1, 23] | Plant response rating, Johnsongrass [2, 19] | Plant response rating, Johnsongrass [2, 20] | Corn plant response rating (corn (Zea mays); [18]) | Plant response rating, Corn (corn (Zea mays); [19]) | Plant response rating, Corn (corn (Zea mays); [23]) | Wheat plant response rating [4, 18] | Plant response rating (scale 0 to 100), Wheat ([4]; Preemergence, 125 g ai/ha) | Crabgrass, Large plant response rating [5, 17] | Crabgrass, Large plant response rating [5, 18] | Plant response rating, Blackgrass [8, 21] | Plant response rating, Blackgrass [8, 22] | Barnyardgrass plant response rating [9, 18] | Plant response rating, Barnyardgrass [9, 19] | Plant response rating, Barnyardgrass [9, 21] | Nutsedge, Yellow plant response rating [11, 18] | Plant response rating, Nutsedge, Yellow [11, 19] | Plant response rating, Nutsedge, Yellow [11, 20] | Morningglory plant response rating [12, 17]
35: Plant response rating, Morningglory [12, 23] | Plant response rating, Ragweed [16, 22]
80: Plant response rating (scale 0 to 100), Johnsongrass ([2]; Preemergence, 125 g ai/ha) | Plant response rating, Lambsquarters [6, 20] | Plant response rating, Lambsquarters [6, 21] | Plant response rating, Velvetleaf [7, 20] | Plant response rating, Galium [15, 21]
45: Morningglory plant response rating [12, 18] | Plant response rating, Morningglory [12, 19] | Plant response rating (scale 0 to 100), Morningglory ([12]; Preemergence, 125 g ai/ha)
70: Soybean plant response rating (soybean (Glycine max); [18]) | Plant response rating, Lambsquarters [6, 19] | Plant response rating, Velvetleaf [7, 19] | Plant response rating, Galium [15, 22]
55: Waterhemp plant response rating [3, 18] | Oilseed Rape plant response rating [10, 18] | Pigweed plant response rating [13, 18] | Plant response rating, Pigweed [13, 19]
75: Plant response rating, Waterhemp [3, 19] | Plant response rating, Crabgrass, Large [5, 21] | Plant response rating (scale 0 to 100), Barnyardgrass ([9]; Preemergence, 62 g ai/ha) | Plant response rating, Oilseed Rape [10, 19] | Plant response rating, Pigweed [13, 20] | Plant response rating, Pigweed [13, 21]
65: Plant response rating, Soybean (soybean (Glycine max); [22]) | Plant response rating, Morningglory [12, 20] | Plant response rating, Galium [15, 19]
10: Plant response rating, Johnsongrass [2, 22] | Plant response rating, Corn (corn (Zea mays); [20]) | Plant response rating, Crabgrass, Large [5, 19] | Plant response rating, Crabgrass, Large [5, 20] | Velvetleaf plant response rating [7, 17] | Plant response rating, Barnyardgrass [9, 20] | Plant response rating, Nutsedge, Yellow [11, 22] | Plant response rating, Morningglory [12, 21] | Foxtail, Giant plant response rating [14, 18]
95: Plant response rating (scale 0 to 100), Soybean (soybean (Glycine max); Preemergence, 125 g ai/ha) | Plant response rating, Soybean (soybean (Glycine max); [23]) | Plant response rating, Galium [15, 20]
98: Plant response rating, Waterhemp [3, 20] | Plant response rating, Ragweed [16, 20]
30: Plant response rating (scale 0 to 100), Corn (corn (Zea mays); Preemergence, 125 g ai/ha) | Oilseed Rape plant response rating [10, 17] | Pigweed plant response rating [13, 17]
20: Plant response rating, Wheat [4, 20] | Plant response rating, Barnyardgrass [9, 22] | Plant response rating (scale 0 to 100), Nutsedge, Yellow ([11]; Preemergence, 125 g ai/ha) | Plant response rating, Nutsedge, Yellow [11, 23] | Plant response rating, Morningglory [12, 22] | Plant response rating, Foxtail, Giant [14, 19] | Plant response rating, Foxtail, Giant [14, 20] | Ragweed plant response rating [16, 17]
100: Plant response rating (scale 0 to 100), Waterhemp ([3]; Preemergence, 125 g ai/ha) | Plant response rating, Waterhemp [3, 21] | Plant response rating, Waterhemp [3, 23] | Plant response rating (scale 0 to 100), Crabgrass, Large ([5]; Preemergence, 125 g ai/ha) | Plant response rating, Crabgrass, Large [5, 23] | Plant response rating (scale 0 to 100), Lambsquarters ([6]; Preemergence, 125 g ai/ha) | Plant response rating, Lambsquarters [6, 22] | Plant response rating, Lambsquarters [6, 23] | Plant response rating (scale 0 to 100), Velvetleaf ([7]; Preemergence, 125 g ai/ha) | Plant response rating, Velvetleaf [7, 21] | Plant response rating, Velvetleaf [7, 22] | Plant response rating, Velvetleaf [7, 23] | Plant response rating (scale 0 to 100), Oilseed Rape ([10]; Preemergence, 125 g ai/ha) | Plant response rating, Oilseed Rape [10, 21] | Plant response rating, Oilseed Rape [10, 22] | Plant response rating, Oilseed Rape [10, 23] | Plant response rating (scale 0 to 100), Pigweed ([13]; Preemergence, 125 g ai/ha) | Plant response rating, Pigweed [13, 23] | Plant response rating (scale 0 to 100), Foxtail, Giant ([14]; Preemergence, 125 g ai/ha) | Plant response rating, Foxtail, Giant [14, 23] | Plant response rating (scale 0 to 100), Ragweed ([16]; Preemergence, 125 g ai/ha) | Plant response rating, Ragweed [16, 23]
0: Ryegrass, Italian plant response rating [1, 17] | Ryegrass, Italian plant response rating [1, 18] | Plant response rating, Ryegrass, Italian [1, 19] | Plant response rating, Ryegrass, Italian [1, 20] | Plant response rating, Ryegrass, Italian [1, 21] | Plant response rating, Ryegrass, Italian [1, 22] | Johnsongrass plant response rating [2, 17] | Johnsongrass plant response rating [2, 18] | Plant response rating, Johnsongrass [2, 21] | Corn plant response rating (corn (Zea mays); [17]) | Plant response rating, Corn (corn (Zea mays); [21]) | Plant response rating, Corn (corn (Zea mays); [22]) | Wheat plant response rating [4, 17] | Plant response rating, Wheat [4, 21] | Plant response rating, Wheat [4, 22] | Plant response rating, Wheat [4, 23] | Blackgrass plant response rating [8, 17] | Blackgrass plant response rating [8, 18] | Plant response rating, Blackgrass [8, 19] | Barnyardgrass plant response rating [9, 17] | Nutsedge, Yellow plant response rating [11, 17] | Plant response rating, Nutsedge, Yellow [11, 21] | Foxtail, Giant plant response rating [14, 17]
60: Waterhemp plant response rating [3, 17] | Lambsquarters plant response rating [6, 17] | Plant response rating (scale 0 to 100), Blackgrass ([8]; Preemergence, 125 g ai/ha) | Plant response rating, Ragweed [16, 19]
25: Plant response rating, Ragweed [16, 21]
40: Plant response rating, Johnsongrass [2, 23] | Soybean plant response rating (soybean (Glycine max); [17]) | Lambsquarters plant response rating [6, 18] | Galium plant response rating [15, 17]
